{"source": "patent US20170239351A1", "about": "“Therapeutic Combinations of a BTK Inhibitor, a PI3K Inhibitor, a JAK-2 Inhibitor, a PD-1 Inhibitor, and/or a PD-L1 Inhibitor” (Acerta Pharma B.V., priority 2014, published 2017)", "key": {"[1]": {"tested_on": "KPC derived mouse pancreatic cancer cells", "test": "Orthotopic pancreatic cancer model (KPC-derived cells)", "assay_type": "in vivo, C57BL/6 mice", "conditions": "15 mg/kg oral of each drug", "method": "Orthotopic pancreatic cancer models in mice are clinically relevant, benefit from tissue site-specific pathology, and allow for study of metastasis. Qiu and Su, Methods Mol. Biol. 2013, 980, 215-223. A cell line derived from KrasG12D; Trp53R172H; Pdx1-Cre (KPC) mice was orthotopically implanted into the head of the pancreas after 35 passages. Based on the mice background from where the cell lines were generated, 1×10^6 cells were injected in C57BL/6 mice. Throughout the experiment, animals were provided with food and water ad libitum and subjected to a 12-h dark/light cycle. Animal studies were performed in accordance with the U.S. Public Health Service “Guidelines for the Care and Use of Laboratory Animals” (IACUC). After euthanization, pancreatic tumors were dissected out, weighed and single cell suspensions were prepared for flow cytometry analysis.\nResults of the experiments are shown in FIG. 110, which illustrates tumor growth suppression in the orthotopic pancreatic cancer model. The statistical p-value (presumption against null hypothesis) is shown for each tested single active pharmaceutical ingredient and for the combination against the vehicle.\nIn this study, KrasG12D;Trp53R172H; Pdx1-Cre (KPC) derived mouse pancreatic cancer cells (10,000 cells) were injected into the pancreases of 24 female mice. After one week of expansion, drug treatment was started in mice developing pancreatic tumors.\nSingle cell suspensions from tumor samples were prepared as follows. Mouse tumor tissue was collected and stored in PBS/0.1% soybean trypsin inhibitor prior to enzymatic dissociation. […] Following surface staining, samples were acquired on a BD Fortessa and analyzed using FlowJo (Treestar) software."}, "relapsed/refractory CLL": {"tested_on": "relapsed/refractory CLL", "conditions": "cited from earlier work"}, "[2]": {"tested_on": "regulatory T cell (Treg) development", "test": "Regulatory T cell (Treg) development", "assay_type": "cell-based"}, "CD8^+ T cells [3]": {"tested_on": "CD8^+ T cells", "test": "Cytotoxic T cell (CTL) assay", "assay_type": "cell-based", "conditions": "500 nM", "method": "Without being bound by any theory, CD8^+ T cells have two primary effector functions: (1) produce large amounts of IFN-γ (which activates macrophages), and (2) cytolytic activity. […] The targets were B lymphoblasts from lipopolysaccharide (LPS) treated cultures. The assay was performed by incubating different ratios of effectors:targets for 4 hours."}, "Raji cells [4]": {"tested_on": "Raji cells", "test": "Rituximab ADCC assay (51Cr release), healthy donor NK cells", "assay_type": "cell-based, human", "conditions": "1 μM"}, "Raji cells [5]": {"tested_on": "Raji cells", "test": "Antibody-dependent NK cell-mediated cytotoxicity, chromium release assay, Raji cells", "assay_type": "cell-based", "conditions": "1 μM, rituximab, effector:target 25:1, 4 hours"}, "T helper 17 (Th17) cells": {"tested_on": "T helper 17 (Th17) cells", "test": "Effect on T helper 17 (Th17) cells", "assay_type": "cell-based"}, "CD8^+ T cell function [6]": {"tested_on": "CD8^+ T cell function", "test": "IFN-γ level measurements for CD8+ T cell function", "assay_type": "cell-based", "conditions": "relative to vehicle"}, "CD8^+ T cell": {"tested_on": "CD8^+ T cell", "test": "CD8+ T cell viability", "assay_type": "cell-based"}, "NK cells": {"tested_on": "NK cells", "test": "Antibody-stimulated NK cell degranulation (CD107a), flow cytometry", "assay_type": "cell-based, human", "conditions": "DHL-4 target cells"}, "CD4^+ T cells": {"tested_on": "CD4^+ T cells", "test": "Th17 and Treg development from CD4+ T cells", "assay_type": "cell-based", "method": "Enriched CD4^+ T cells are plated on 24-well culture dishes that have been precoated 2 hr with 250 μL anti-TCRβ (0.5 μg/mL) plus anti-CD28 (5 μg/mL) at 37° C. in PBS. The cells are then supplemented with media containing BTK inhibitors along with the skewing cytokines as indicated in the following. The Th17 and Treg cultures are grown for 4 days before analysis. The cells are maintained for an additional 3 days with skewing cytokines (Th17; 20 ng/mL IL-6, 0.5 ng/mL TGF-β, 5 μg/mL IL-4, 5 μg/mL IFN-γ and Treg; 0.5 ng/mL TGF-β, 5 μg/mL IL-4, 5 μg/mL IFN-γ) and are supplemented with IL2 as a growth factor."}, "CD8^+ T cells [7]": {"tested_on": "CD8^+ T cells", "test": "CD8+ T cell viability (LIVE/DEAD staining, 4 days)", "assay_type": "cell-based", "method": "Total T cells were plated on anti-TCR and anti-CD28 coated wells in the presence of both BTK inhibitors. Neutral culture conditions were used that will not polarize T cells to a helper lineage. The cells are grown for 4 days and are then stained with anti-CD4, anti-CD8 and LIVE/DEAD reagent to determine if the drugs have selective effects on either the CD4^+ or CD8^+ cells. Statistical significance was calculated using the Mann Whitney T-test. […]"}, "human platelets": {"tested_on": "human platelets", "test": "GPVI (convulxin-induced) platelet aggregation", "assay_type": "cell-based", "method": "GPVI platelet aggregation was measured for Formula (XVIII) and Formula (XX-A) (ibrutinib). Blood was obtained from untreated humans, and platelets were purified from […] by centrifugation. Cells were resuspended to a final concentration of 350,000/μL in buffer containing 145 mmol/L NaCl, 10 mmol/L HEPES, 0.5 mmol/L Na2HPO4, 5 mmol/L KCl, 2 mmol/L MgCl2, 1 mmol/L CaCl2, and 0.1% glucose, at pH 7.4. Stock solutions of Convulxin (CVX) GPVI were prepared on the day of experimentation and added to platelet suspensions 5 minutes (37° C., 1200 rpm) before the induction of aggregation. Aggregation was assessed with a Chronolog Lumi-Aggregometer (model 540 VS; Chronolog, Havertown, Pa.) and permitted to proceed for 6 minutes after the addition of agonist. The results are reported as maximum percent change in light transmittance from baseline with platelet buffer used as a reference.\nIn FIG. 129, the results of CVX-induced (250 ng/mL) human platelet aggregation results before and 15 minutes after administration of the BTK inhibitors to 6 healthy individuals are shown."}, "CD8^+ T cell function [8]": {"tested_on": "CD8^+ T cell function", "test": "Cytotoxicity assay for CD8+ T cell function", "assay_type": "cell-based", "conditions": "relative to vehicle"}, "[9]": {"tested_on": "human platelet-mediated thrombosis", "parameters": "species or system VWF HA1 mice (human platelets)", "conditions": "in vivo", "method": "[…]. Injury to the vessel wall of arterioles ([…] diameter) was performed using a pulsed nitrogen dye laser (440 nm, Photonic Instruments) applied through a 20× water-immersion Olympus objective (LUMPlanF1, 0.5 numerical aperature (NA)) of a Zeiss Axiotech vario microscope. Human platelet and wall interactions were visualized by fluorescence microscopy using a system equipped with a Yokogawa CSU-22 spinning disk confocal scanner, iXON EM camera, and 488 nm and 561 nm laser lines to detect BCECF-labeled and rhodamine-labeled platelets, respectively (Revolution XD, Andor Technology). The extent of thrombus formation was assessed for 2 minutes after injury and the area (μm^2) of coverage determined (Image IQ, Andor Technology).\n. The BTK inhibitor-treated human platelets were fluorescently labeled and infused continuously through a catheter inserted into the femoral artery. Their behavior in response to laser-induced vascular injury was monitored in real time using two-channel confocal intravital microscopy (Furie and Furie, J. Clin. Invest. 2005, 115(12), 2255-62). Upon induction of arteriole injury untreated platelets rapidly formed thrombi with an average thrombus size of […] (mean±s.e.m.), as shown in FIG. 124 and FIG. 125. […]. […]. […]"}, "B cell receptor": {"tested_on": "B cell receptor", "test": "Whole blood B cell receptor signalling assay (anti-IgD, CD69 on CD19+ B cells)", "assay_type": "cell-based", "conditions": "2 h incubation, anti-human IgD 18 h", "method": "Blood from four healthy donors was incubated for 2 hours with the compounds shown over a concentration range, and then stimulated with anti-human IgD [10 μg/mL] for 18 hours. The mean fluorescent intensity (MFI) of CD69 (and CD86, data not shown) on gated CD19+ B cells was measured by flow cytometry."}}, "data": [{"molecule": "C[C@H](Nc1ncnc2[nH]cnc12)c1cc2ccc(F)cc2nc1-c1ccccn1", "note": "[Formula (IX), (S)—N-(1-(7-fluoro-2-(pyridin-2-yl)quinolin-3-yl)ethyl)-9H-purin-6-amine, reference compound]", "values": [{"measurement": "tumor volume versus vehicle", "setting": "[1]", "value": "statistically significant reductions in tumor volume"}]}, {"molecule": "obinutuzumab: type II glycoengineered CD20 monoclonal antibody", "values": [{"measurement": "Grade 3 IRRs", "setting": "relapsed/refractory CLL; Phase 1 portion (n=13)", "value": 15, "unit": "%"}, {"measurement": "patients who experienced IRRs", "setting": "relapsed/refractory CLL; Phase 1 portion (n=13)", "value": "all patients"}, {"measurement": "IRR cases developing symptoms of hypotension", "setting": "relapsed/refractory CLL; Phase 2 portion", "value": 60, "unit": "%"}, {"measurement": "hypotension cases that were Grade 3 reactions", "setting": "relapsed/refractory CLL; Phase 2 portion", "value": 25, "unit": "%"}, {"measurement": "patients who developed IRR", "setting": "relapsed/refractory CLL; Phase 2 portion", "value": 95, "unit": "%"}, {"measurement": "response rate", "setting": "relapsed/refractory CLL; monotherapy, Phase 1, previously treated CLL", "value": 62, "unit": "%"}]}, {"molecule": "C=CC(=O)N1CCC[C@@H](n2nc(-c3ccc(Oc4ccccc4)cc3)c3c(N)ncnc32)C1", "note": "[ibrutinib, 1-[(3R)-3-[4-amino-3-(4-phenoxyphenyl)-1H-pyrazolo[3,4-d]pyrimidin-1-yl]piperidin-1-yl]prop-2-en-1-one, reference compound]", "values": [{"measurement": "effect on Treg development", "setting": "[2]", "value": "strongly increases Treg development"}, {"measurement": "CD8^+ T cell function as % cytotoxicity", "setting": "CD8^+ T cells [3]", "value": "affects CD8^+ T cell function"}, {"measurement": "CD8^+ T cell function as IFN-γ levels", "setting": "CD8^+ T cells [3]", "value": "significant loss of function"}, {"measurement": "effect on rituximab-mediated ADCC", "setting": "Raji cells [4]", "value": "strongly inhibited"}, {"measurement": "antibody-dependent NK cell-mediated cytotoxicity (percent lysis of tumor cells)", "setting": "Raji cells [5]", "value": "antagonizes antibody-dependent NK cell-mediated cytotoxicity"}, {"measurement": "effect on Th17 cells", "setting": "T helper 17 (Th17) cells", "value": "strongly inhibits Th17 cells"}, {"measurement": "CD8+ T cell function as measured by IFN-γ level", "setting": "CD8^+ T cell function [6]", "value": "affects CD8^+ T cell function"}, {"measurement": "effect on CD8+ T cell viability", "setting": "CD8^+ T cell", "value": "strongly affects CD8^+ T cell viability at higher doses"}, {"measurement": "inhibition of rituximab-stimulated NK cell degranulation", "setting": "NK cells", "value": "~50", "unit": "%"}, {"measurement": "effect on Th17 and Treg development", "setting": "CD4^+ T cells", "value": "profound inhibition of Th17 cells and an increase in Treg development"}, {"measurement": "effect on CD8^+ T cell viability", "setting": "CD8^+ T cells [7]", "value": "strong, negative effect on CD8^+ T cell viability"}, {"measurement": "GPVI platelet aggregation", "setting": "human platelets", "value": "significantly inhibits GPVI platelet aggregation"}, {"measurement": "CD8+ T cell function as measured by % cytotoxicity", "setting": "CD8^+ T cell function [8]", "value": "affects CD8^+ T cell function"}, {"measurement": "effect on thrombus formation", "setting": "[9]", "value": "interfere with thrombus formation"}]}, {"molecule": "C=CC(=O)Nc1cccc(Nc2nc(Nc3ccc(OCCOC)cc3)ncc2F)c1", "note": "[CC-292]", "values": [{"measurement": "EC50", "setting": "B cell receptor", "value": 0.121, "unit": "µM"}]}]}
